Assays:
Format in all cases: in vivo
[1] = tested on: LOLPE; assay: Pre-emergence biological efficacy; settings: Lolium perenne, 312 h, evaluated after 13 days, read-out: damage to plant (100=total damage to plant; 0=no damage to plant)
Description: (§1) Seeds of weeds and/or crops were sown in standard soil in pots. After cultivation for one day under controlled conditions in a glasshouse (at 24/19° C., day/night; 16 hours light), the plants were sprayed with an aqueous spray solution derived from the formulation of the technical active ingredient in a small amount of acetone and a special solvent and emulsifier mixture referred to as IF50 (11.12% Emulsogen EL360 TM+44.44% N-methylpyrrolidone+44.44% Dowanol DPM glycol ether), to create a 50g/l solution which was then diluted using 0.2% Genapol XO80 as diluent to give the desired final dose of test compound.
(§2) The test plants were then grown under controlled conditions in the glasshouse (at 24/18° C., day/night; 15 hours light; 50% humidity) and watered twice daily. After 13 days the test was evaluated (100=total damage to plant; 0=no damage to plant).

[2] = tested on: ECHCG; assay: Pre-emergence biological efficacy; settings: Echinochloa crus-galli, 312 h, evaluated after 13 days, read-out: damage to plant (100=total damage to plant; 0=no damage to plant)
Description: as §1, §2

[3] = tested on: EPHHL; assay: Pre-emergence biological efficacy; settings: Euphorbia heterophylla, 312 h, evaluated after 13 days, read-out: damage to plant (100=total damage to plant; 0=no damage to plant)
Description: as §1, §2

[4] = tested on: SETFA; assay: Pre-emergence biological efficacy; settings: Setaria faberi, 312 h, evaluated after 13 days, read-out: damage to plant (100=total damage to plant; 0=no damage to plant)
Description: as §1, §2

[5] = tested on: AMAPA; assay: Pre-emergence biological efficacy; settings: Amaranthus palmeri, 312 h, evaluated after 13 days, read-out: damage to plant (100=total damage to plant; 0=no damage to plant)
Description: as §1, §2

[6] = tested on: IPOHE; assay: Pre-emergence biological efficacy; settings: Ipomoea hederacea, 312 h, evaluated after 13 days, read-out: damage to plant (100=total damage to plant; 0=no damage to plant)
Description: as §1, §2

[7] = tested on: LOLPE; assay: Post-emergence biological efficacy; settings: Lolium perenne, 312 h, evaluated after 13 days, read-out: damage to plant (100=total damage to plant; 0=no damage to plant)
Description: as §1, with “14 days” for “one day”
(§3) The test plants were then grown under controlled conditions in the glasshouse (at 24/18° C., day/night; 15 hours light; 50% humidity)and watered twice daily. After 13 days the test was evaluated (100=total damage to plant; 0=no damage to plant).

[8] = tested on: ECHCG; assay: Post-emergence biological efficacy; settings: Echinochloa crus-galli, 312 h, evaluated after 13 days, read-out: damage to plant (100=total damage to plant; 0=no damage to plant)
Description: as §1, with “14 days” for “one day”
as §3

[9] = tested on: EPHHL; assay: Post-emergence biological efficacy; settings: Euphorbia heterophylla, 312 h, evaluated after 13 days, read-out: damage to plant (100=total damage to plant; 0=no damage to plant)
Description: as §1, with “14 days” for “one day”
as §3

[10] = tested on: SETFA; assay: Post-emergence biological efficacy; settings: Setaria faberi, 312 h, evaluated after 13 days, read-out: damage to plant (100=total damage to plant; 0=no damage to plant)
Description: as §1, with “14 days” for “one day”
as §3

[11] = tested on: CHEAL; assay: Post-emergence biological efficacy; settings: Chenopodium album, 312 h, evaluated after 13 days, read-out: damage to plant (100=total damage to plant; 0=no damage to plant)
Description: as §1, with “14 days” for “one day”
as §3

[12] = tested on: DIGSA; assay: Post-emergence biological efficacy; settings: Digitaria sanguinalis, 312 h, evaluated after 13 days, read-out: damage to plant (100=total damage to plant; 0=no damage to plant)
Description: as §1, with “14 days” for “one day”
as §3

[13] = tested on: ELEIN; assay: Post-emergence biological efficacy; settings: 312 h, evaluated after 13 days, read-out: damage to plant (100=total damage to plant; 0=no damage to plant)
Description: as §1, with “14 days” for “one day”
as §3

[14] = tested on: AMAPA; assay: Post-emergence biological efficacy; settings: Amaranthus palmeri, 312 h, evaluated after 13 days, read-out: damage to plant (100=total damage to plant; 0=no damage to plant)
Description: as §1, with “14 days” for “one day”
as §3

[15] = tested on: IPOHE; assay: Post-emergence biological efficacy; settings: Ipomoea hederacea, 312 h, evaluated after 13 days, read-out: damage to plant (100=total damage to plant; 0=no damage to plant)
Description: as §1, with “14 days” for “one day”
as §3

Measured: pest or weed control at 250 g/ha

CCOC(=O)C1(C)CC(c2cc(-c3ccc(C(F)(F)F)cn3)c(F)cc2Cl)=NO1 (stereo not drawn) [Compound 1-79, Ethyl 3-[2-chloro-4-fluoro-5-[5-(trifluoromethyl)-2-pyridyl]phenyl]-5-methyl-4H-isoxazole-5-carboxylate]
40%: [1]
90%: [13]
50%: [5]
60%: [3] | [4]
80%: [2]
100%: all other assays above

CCOC(=O)C1(C)CC(c2cc(-c3ncc(C(F)(F)F)cc3F)c(F)cc2Cl)=NO1 (stereo not drawn) [Compound 1-91, Ethyl 3-[2-chloro-4-fluoro-5-[3-fluoro-5-(trifluoromethyl)-2-pyridyl]-phenyl]-5-methyl-4H-isoxazole-5-carboxylate]
90%: [1]
100%: all other assays above

CCOC(=O)C1(C)CC(c2cc(-c3ncc(C(F)(F)F)cc3Cl)ccc2Cl)=NO1 (stereo not drawn) [Compound 1-99, Ethyl 3-[2-chloro-5-[3-chloro-5-(trifluoromethyl)-2-pyridyl]-phenyl]-5-methyl-4H-isoxazole-5-carboxylate]
80%: [1]
100%: all other assays above

CC1(C(=O)O)CC(c2cc(-c3ncc(C(F)(F)F)cc3Cl)c(F)cc2Cl)=NO1 (stereo not drawn) [Compound 1-101, 3-[2-chloro-5-(3-chloro-5-trifluoromethyl-2-pyridyl)-4-fluoro-phenyl]-5-methyl-4H-isoxazole-5-carboxylic acid]
80%: [1]
100%: all other assays above

CCOC(=O)C1(C)CC(c2cc(-c3ncc(C(F)(F)F)cc3Cl)c(F)cc2Cl)=NO1 (stereo not drawn) [Compound 1-103, Ethyl 3-[2-chloro-5-(3-chloro-5-trifluoromethyl-2-pyridyl)-4-fluoro-phenyl]-5-methyl-4H-isoxazole-5-carboxylate]
90%: [2]
80%: [1] | [4]
100%: all other assays above

CCOC(=O)C1(C)CC(c2cc(-c3ncc(Cl)cc3Cl)c(F)cc2Cl)=NO1 (stereo not drawn) [Compound 1-115, Ethyl 3-[2-chloro-5-(3,5-dichloro-2-pyridyl)-4-fluoro-phenyl]-5-methyl-4H-isoxazole-5-carboxylate]
50%: [1]
60%: [4]
80%: [2] | [6]
100%: all other assays above

CCOC(=O)C1(C)CC(c2cc(-c3ncccc3Cl)c(F)cc2Cl)=NO1 (stereo not drawn) [Compound 1-127, Ethyl 3-[2-chloro-5-(3-chloro-2-pyridyl)-4-fluoro-phenyl]-5-methyl-4H-isoxazole-5-carboxylate]
40%: [5]
90%: [8]
50%: [2] | [6] | [12]
80%: [9]
20%: [1]
10%: [7]
30%: [13]
70%: [4]
100%: all other assays above

CCOC(=O)C1(C)CC(c2cc(-c3ccccn3)c(F)cc2Cl)=NO1 (stereo not drawn) [Compound 1-139, Ethyl 3-[2-chloro-4-fluoro-5-(2-pyridyl)phenyl]-5-methyl-4H-isoxazole-5-carboxylate]
10%: [9] | [10]
20%: [15]
0%: all other assays above

CCOC(=O)C1(C)CC(c2cc(-c3ncc(C)cc3Cl)c(F)cc2Cl)=NO1 (stereo not drawn) [Compound 1-175, Ethyl 3-[2-chloro-5-(3-chloro-5-methyl-2-pyridyl)-4-fluoro-phenyl]-5-methyl-4H-isoxazole-5-carboxylate]
80%: [4]
90%: [7]
20%: [1]
50%: [6]
70%: [12] | [13]
60%: [2] | [3]
30%: [5]
100%: all other assays above
